This note sets out measurements from article PMC4448982, “LP-925219 maximizes urinary glucose excretion in mice by inhibiting both renal SGLT1 and SGLT2” (Pharmacology Research & Perspectives, 2015).

Read-outs that look alike come from different tables or passages of the source.

Series [1] deals with T1, dog SGLT1 (Canis lupus familiaris, UniProt A0A8I3PYH5).
T1 sequence (A0A8I3PYH5 1-662): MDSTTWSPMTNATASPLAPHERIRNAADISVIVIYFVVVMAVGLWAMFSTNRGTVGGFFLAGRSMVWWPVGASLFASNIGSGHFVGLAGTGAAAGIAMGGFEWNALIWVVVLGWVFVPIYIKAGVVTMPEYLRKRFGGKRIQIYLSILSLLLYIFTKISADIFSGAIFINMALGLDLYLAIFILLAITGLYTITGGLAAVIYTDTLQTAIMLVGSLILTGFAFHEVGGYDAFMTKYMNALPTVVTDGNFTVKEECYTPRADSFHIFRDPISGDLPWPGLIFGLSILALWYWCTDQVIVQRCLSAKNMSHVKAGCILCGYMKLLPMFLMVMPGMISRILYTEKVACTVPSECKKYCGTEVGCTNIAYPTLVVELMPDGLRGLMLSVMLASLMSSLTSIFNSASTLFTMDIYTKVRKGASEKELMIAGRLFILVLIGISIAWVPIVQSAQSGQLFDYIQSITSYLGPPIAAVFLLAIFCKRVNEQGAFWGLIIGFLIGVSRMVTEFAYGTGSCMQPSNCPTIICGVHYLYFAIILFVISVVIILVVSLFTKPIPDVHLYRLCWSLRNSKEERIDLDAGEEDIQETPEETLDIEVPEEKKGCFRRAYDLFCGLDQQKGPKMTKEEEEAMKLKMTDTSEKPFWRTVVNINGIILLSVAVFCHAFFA
Nature of the series: 14C-AMG uptake assay, cells expressing dog SGLT1. The series is classed as cell-based. As to conditions: mean ± SD. From the text: Methods for generating cell lines expressing mouse, rat, and dog SGLT1 and SGLT2 are published (Powell et al. [2013b], [2014]). Full-length coding sequence of human SGLT1 (NP_000334) and human SGLT2 (NP_003032.1) with an HA-tag at the N-terminus were cloned into the mammalian expression vector pIRESpuro2 (Clontech, Mountain View, CA). HEK293 cells (ATCC, Manassas, VA) were transfected with the pIRESpuro2 vector containing human SGLT1 or SGLT2 and bulk stable cell lines were selected in the presence of 0.5 μg/mL of puromycin.
Cell lines expressing SGLT1 or SGLT2 were plated into poly-D-lysine-coated 384-well plates, and culture overnight in cell growth medium. Cells were washed, and then incubated in uptake buffer ([…], […] KCl, […] CaCl2, […] MgCl2, […] HEPES/Tris, 1 mg/mL of bovine serum albumin, pH7.4) containing [^14C]α-methylglucopyranoside (^14C-AMG), a nonmetabolizable glucose analog specific for sodium-dependent glucose transporters (Wright and Turk [2004]). The inhibition of SGLT1 or SGLT2 was determined by measuring SGLT1/2-mediated ^14C-AMG uptake in the presence of increasing compound concentrations of LP-925219. […] Standard sigmoidal dose–response model curves were fitted, and the IC50 value was computed as the LP-925219 concentration that inhibited the ^14C-AMG uptake by 50% between baseline and maximum uptake.

Series [2] in a line: Pharmacokinetics in mice (intravenous and oral). The format is in vivo. As to conditions: mouse. Here is the method: Adult male C57BL/6J mice (25–35 g) were maintained on chow diet, had free access to water and were conscious through the study. LP-925219 was delivered by bolus intravenous administration at 1 mg/kg or by oral gavage at a dose of 10 mg/kg; 0.1% Tween-80 served as vehicle. Following intravenous injection, serial blood samples were collected in Ethylenediaminetetraacetic acid-containing tubes through 6 h. Following oral administration, serial blood samples were collected through 24 h. The plasma fraction was immediately separated by centrifugation at 4°C, and then stored at −20°C until sample analysis. To quantify LP-925219 concentrations, plasma samples were extracted with acetonitrile-water-formic acid (80:20:0.1) containing verapamil as internal standard at a concentration of 1 μmol/L. Extracted samples were analyzed by LC/MS-MS using a Surveyor HPLC system with a TSQ triple quadrupole mass spectrometer coupled with an Electrospray ionization source (Thermo Fisher Scientific, Waltham, MA). XCalibur 2.0 SR2 software (Thermo Fisher Scientific) was used for instrument control and data calculation. A rapid LC gradient with ammonium acetate […] (pH ∼6) and acetonitrile was used. Calculations were made by normalizing the area counts of compound to the area counts of the internal standard (relative area counts).
All plasma concentration versus time data for LP-925219 were analyzed using noncompartmental analysis, either extravascular administration (for oral administration) or bolus IV administration (for intravenous administration), of Phoenix™ WinNonlin® (version 6.3, Pharsight, Inc. Mountain View, CA). The half-life during the terminal phase was calculated from the elimination rate constant (λ) determined by the linear regression analysis of the log-linear part of the plasma concentration curve. The LP-925219 AUC0–t was calculated using linear up/log down trapezoidal method up to the last measured concentration at time t (Ct). AUC0–∞ was calculated as AUC0–t + Ct/λ. Clearance (CL) was calculated by dose/AUC0–∞. Other pharmacokinetic parameters included plasma peak concentration (Cmax), the time of Cmax (Tmax) and volume of distribution at steady state (Vss). Oral bioavailability (%F) was calculated by the equation: %F = (AUC0–∞ PO/AUC0–∞ IV) × (Dose IV/Dose PO).

The mark [3] stands for this setting: male, C57BL/6J, plasma, 1 mg/kg intravenous.
The mark [4] stands for this setting: male, C57BL/6J, plasma, 10 mg/kg oral.

What is called IC50 is the point on the concentration scale where inhibition reaches its midpoint. The AUC(0-inf) is the area under the concentration-time curve extrapolated to infinity. A lower AUC(0-inf) goes with low exposure. Usually AUC(0-t) stands for exposure summed from dosing to a finite time, without extrapolation to infinity. Low readings indicate low exposure, high ones high exposure. Broadly, the Cmax is the highest concentration seen after dosing. By half-life is commonly meant the time needed for the level to fall by half in the phase considered. As usually defined, the Tmax is the time from dosing to the highest level. On to `COc1ccc(Cc2cc([C@@H]3O[C@H](SC)[C@@H](O)[C@H](O)[C@H]3O)ccc2Cl)cc1` [LP-925219], for which it took 30.2 ± 2 nM to reach half-maximal inhibition in series [1] (IC50). Moreover, in series [2] (setting [3]), the AUC(0-inf) came out at 1.41 ± 0.04 µM·h, the AUC(0-t) was 1.214 ± 0.012 µM·h, the peak concentration (Cmax) is 1440 ± 97 nM and the clearance stood at 29 ± 1 mL/min/kg. The half-life in series [2] (setting [3]) is 168 ± 42 min. The Vd in series [2] (male, C57BL/6J, plasma, 1 mg/kg intravenous, read-out: Vss) was 4.4 ± 0.6 L/kg. Besides, in series [2] (setting [4]), the AUC(0-t) is 11.2 µM·h, the Cmax amounted to 3160 ± 802 nM, the Tmax was 18 min and the half-life is 420 ± 54 min. In addition, the bioavailability in series [2] (male, C57BL/6J, plasma, 10 mg/kg oral vs 1 mg/kg intravenous, read-out: %F) was 87 ± 21%. In addition, in series [2] (male, C57BL/6J, plasma, 10 mg/kg oral, 6 h, read-out: plasma level at 6 h postdosing), the concentration at 6 h is 617 ± 107 nM. Moreover, the concentration at 24 h in series [2] (male, C57BL/6J, plasma, 10 mg/kg oral, 24 h, read-out: plasma level at 24 h post dosing) worked out at 100 ± 43 nM. Moreover, in series [2] (male, C57BL/6J, plasma, 10 mg/kg oral, read-out: bioavailability (%F)), the bioavailability was determined as 87%. Besides, the “AUC0-∞” value in series [2] (10 mg/kg oral) is reported as 12,214 ± 3037 nmo/L*h. Moreover, in series [2] (10 mg/kg oral, 24 h, 10 mg/kg), the “plasma level at 24 h post dosing” value worked out at 100 nmol/L.
